Article PMC10454375, “Cell-Impermeable Inhibitors Confirm That Intracellular Human Transglutaminase 2 Is Responsible for the Transglutaminase-Associated Cancer Phenotype” (International Journal of Molecular Sciences, 2023)
Read-outs that look alike come from different tables or passages of the source.

What was measured:
Recombinant human TG2 [1] = target: T1, Recombinant human TG2 (Homo sapiens, UniProt P21980); parameters: method as in PMID 36846375; conditions: previous lead compound, Figure 1; cited from earlier work
T1 construct: GST (with PSP protease site, plasmid pGST-PSP-rhTG2) (N, cleaved yes); made in house; host or cells: E. coli (BL21)
T1 sequence (P21980 1-687): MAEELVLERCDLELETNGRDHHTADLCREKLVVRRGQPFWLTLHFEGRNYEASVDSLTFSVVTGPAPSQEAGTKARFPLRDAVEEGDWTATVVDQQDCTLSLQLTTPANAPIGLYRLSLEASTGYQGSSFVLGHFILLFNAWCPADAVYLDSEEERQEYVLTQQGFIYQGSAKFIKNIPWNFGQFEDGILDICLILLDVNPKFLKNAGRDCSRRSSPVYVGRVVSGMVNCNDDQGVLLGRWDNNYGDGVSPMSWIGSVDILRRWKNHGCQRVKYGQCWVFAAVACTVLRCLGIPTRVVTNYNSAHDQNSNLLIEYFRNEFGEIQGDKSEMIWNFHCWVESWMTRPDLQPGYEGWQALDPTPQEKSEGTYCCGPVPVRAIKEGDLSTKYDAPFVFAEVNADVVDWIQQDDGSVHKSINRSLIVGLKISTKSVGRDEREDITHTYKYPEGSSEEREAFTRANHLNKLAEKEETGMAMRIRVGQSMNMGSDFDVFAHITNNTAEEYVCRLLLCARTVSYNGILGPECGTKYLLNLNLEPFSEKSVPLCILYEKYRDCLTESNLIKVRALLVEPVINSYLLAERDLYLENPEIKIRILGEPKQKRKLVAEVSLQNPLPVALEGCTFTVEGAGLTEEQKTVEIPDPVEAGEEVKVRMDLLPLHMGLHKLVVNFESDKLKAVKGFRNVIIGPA

Recombinant human TG2 [2] = target: T1, Recombinant human TG2; assay: rhTG2 inhibition assay, continuous chromogenic substrate AL5, Kitz and Wilson conditions; format: biochemical; conditions: for kinact / Ki: * compounds fitted to double reciprocal model, 25 °C, pH 6.9, 100 µM AL5; for kinact/KI: * double reciprocal model, ** lowest concentrations of saturation plot fitted to a linear model; for Ki: irreversible inhibition
Text: Relative to the original scaffold, we expected the potency of these novel chemical biology tools to decrease slightly, due to the additional bulk incorporated on the glutamate sidechain. Although we expected the sidechain moiety to be directed into bulk solvent, we were concerned that its mass and charge would disfavor the binding interaction. Therefore, we kinetically characterized these probes as rigorously as possible, in order to determine their relative affinity and reactivity. For most inhibitors we have made, including the parent inhibitor AA9 (Figure 1), we have been able to measure kinetic parameters under Kitz and Wilson conditions. This experimental approach is based on the use of a continuous activity assay and the measurement of first-order rate constants for the time-dependent inactivation of enzyme (see Figure 2A and Figures S1–S5 in Supplementary Materials). The dependence of these observed rate constants (kobs) on the inhibitor concentration divided by alpha ([I]/α) can then be fitted to a hyperbolic saturation model where the upper plateau represents the rate constant of inactivation (kinact), and the concentration providing half the rate constant of inactivation represents KI (Figure 2B). […] To compensate for this, the overall efficiency of the inhibitor (kinact/KI) can be derived from the slope of the linear region of the saturation plot (Figure 2C). To gauge the individual parameters, a double reciprocal fitting was also employed where KI can be calculated from the x-axis intercept and kinact can be calculated from the y-axis intercept (Figure 2D).
Recombinant human TG2 was expressed and purified using previously published protocols. The inhibition was monitored using a continuous chromogenic substrate AL5 [38] under Kitz and Wilson conditions. In brief, 125 µL of assay buffer composed of 111.11 mM MOPS, 15.56 CaCl2 pH 6.9 was added to a 1.5 mL Eppendorf tube to achieve final assay concentrations of 50 mM MOPS and […] CaCl2. To the tube was then added the respective concentration of inhibitor from an aqueous working stock (<5% DMSO final conditions). Various volumes of water were then added to ensure the final volumes were equal. The AL5 substrate was added to the Eppendorf tube as a 5 µL 5.56 mM solution in DMSO to obtain a final assay concentration of 100 µM. A 96-well polystyrene microplate then had 180 µL of the assay mixture added to it. The enzymatic reaction was finally initiated by addition of 20 µL 5 mU prediluted TG2 in assay buffer using a multichannel pipette. The reaction was monitored at 405 nm using a BioTek Synergy 4 plate reader for 20 min at 25 °C. A positive control with no inhibitor and a blank with no enzyme nor inhibitor were also included. The blank subtracted kinetic curves were then analyzed. The observed first-order rate constants of inactivation were gathered through a one-phase association model using the GraphPad software package. The rate constants were then fit to various models to elucidate the inhibition parameters. If saturation was achieved, they were fit to a saturation model versus the inhibitor concentration divided by alpha (where α=1+Substrate/Km ). A linear regression of the linear region of this saturation fitting was calculated to obtain a ratio of kinact/KI. A further double reciprocal model was used if saturation could not be observed due to the limitations in sensitivity of the assay or if solubility issues were present.

[3] = Solubility in aqueous solutions; format: physicochemical; conditions: read-out: concentration above which decreased solubility in aqueous solutions was displayed
GST-TG2 fusion protein = target: T2, GST-TG2 fusion protein (Homo sapiens, UniProt P21980); assay: Pull-down of rhTG2 from E. coli lysate (CuAAC with desthiobiotin-PEG3-azide, streptavidin resin); format: binding; conditions: E. coli lysate overexpressing GST-rhTG2; elution with 4 mM biotin
T2 construct: made in house; host or cells: BL21 E. coli (crude lysate)
T2 sequence (P21980 with tags, fused parts or gaps): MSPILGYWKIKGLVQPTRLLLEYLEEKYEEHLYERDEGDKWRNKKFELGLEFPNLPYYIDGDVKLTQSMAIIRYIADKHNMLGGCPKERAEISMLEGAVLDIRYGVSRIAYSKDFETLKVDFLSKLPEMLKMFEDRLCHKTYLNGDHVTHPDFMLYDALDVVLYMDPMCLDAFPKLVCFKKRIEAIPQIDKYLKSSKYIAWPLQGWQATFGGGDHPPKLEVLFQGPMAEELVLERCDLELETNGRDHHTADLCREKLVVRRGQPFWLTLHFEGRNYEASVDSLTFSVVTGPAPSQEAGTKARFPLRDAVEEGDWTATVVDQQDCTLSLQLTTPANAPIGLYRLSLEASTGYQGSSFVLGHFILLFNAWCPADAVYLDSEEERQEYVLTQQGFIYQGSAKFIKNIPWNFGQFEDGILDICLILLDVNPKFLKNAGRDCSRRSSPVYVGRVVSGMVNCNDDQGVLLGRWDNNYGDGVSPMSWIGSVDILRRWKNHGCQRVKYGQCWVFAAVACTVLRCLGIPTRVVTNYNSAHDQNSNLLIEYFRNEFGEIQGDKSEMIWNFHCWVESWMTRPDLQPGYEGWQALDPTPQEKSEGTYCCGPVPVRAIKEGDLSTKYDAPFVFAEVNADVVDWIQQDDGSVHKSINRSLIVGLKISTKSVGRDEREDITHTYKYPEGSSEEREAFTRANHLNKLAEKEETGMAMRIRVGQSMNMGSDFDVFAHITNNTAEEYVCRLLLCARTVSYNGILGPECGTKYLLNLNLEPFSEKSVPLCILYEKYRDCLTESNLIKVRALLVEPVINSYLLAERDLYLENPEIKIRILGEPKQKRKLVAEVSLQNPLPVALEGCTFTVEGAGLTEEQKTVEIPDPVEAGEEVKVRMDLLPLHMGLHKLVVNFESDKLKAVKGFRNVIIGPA
Description: As a proof of concept, previously described BL21 E. coli cells were transformed with a plasmid (pGST-PSP-rhTG2) to induce overexpression of recombinant human TG2 (rhTG2) as a GST fusion protein [47]. The bacterial cells were then lysed and exposed to the propargylated inhibitor 31 to allow for labelling. A subsequent CuAAC reaction was then performed in the same cell lysate to incorporate the desthiobitoin-PEG3-azide into labelled TG2. The lysate was then passed over streptavidin resin to isolate all proteins that had reacted with inhibitor 31. These proteins were then eluted from the resin using a solution of 4 mM biotin, and the eluant was analyzed by SDS-PAGE. […] This validates not only the TG2-selectivity of probe 31, but also the efficiency of the click reaction of the GST-TG2-31 adduct, allowing for the isolation of TG2 from cell lysate in a very mild manner.
A total of 400 µL of the aforementioned E. coli cell lysate combined with 133 µL of a solution of 75 µM 31 was added to a 1.5 mL Eppendorf tube. The labelling was allowed to occur for 25 min. Totals of 25 µL of a solution of 500 µM azide-PEG3-desthiobiotin 32 and 500 µM cupric sulfate in 20 mM HEPES at pH 8.0 were added to the tube. To initiate the click reaction, 100 µL of 150 µM sodium ascorbate solution in mQ H2O was added and gently rocked for 2.5 h at room temperature. […]

kinact (Recombinant human TG2 [2]) [s⁻¹]	kinact/KI (Recombinant human TG2 [2]) [M⁻¹ s⁻¹]	Ki (Recombinant human TG2 [2]) [nM]	solubility [3] [µM]	Compound	kinact/KI (Recombinant human TG2 [1]) [M⁻¹ s⁻¹]	proteins isolated by pull-down (TG2 selectivity) (GST-TG2 fusion protein)
–	–	–	–	C=CC(=O)NCCCC[C@H](NC(=O)OCc1ccccc1)C(=O)N1CCN(C(=O)c2cccc3ccccc23)CC1 [AA9]	1670	–
0.004	3130	1300 ± 1100	> 25	C=CC(=O)NCCCC[C@H](NC(=O)OCc1ccccc1)C(=O)N1CCN(C(=O)[C@H](CCC(=O)NCCCCCNC(=O)c2cc3ccc(N(CC)CC)cc3oc2=O)NC(=O)c2cccc3ccccc23)CC1 [Compound 22]	–	–
0.00767	8280	900 ± 500	–	C#CCNC(=O)CC[C@H](NC(=O)c1cccc2ccccc12)C(=O)N1CCN(C(=O)[C@H](CCCCNC(=O)C=C)NC(=O)OCc2ccccc2)CC1 [Compound 31]	–	the only protein efficiently isolated in this experiment corresponds to the GST-TG2 fusion protein
